In ChEMBL document CHEMBL5212743, “Selectivity Literature for EUbOPEN Chemogenomics Library wave 3” (2023):
Each block holds one compound with its values, some of them ahead of it.

Columns and labels:
[1] = target: Aurora kinase A (Homo sapiens) (UniProt O14965); assay: Selectivity interaction (KinomeScan (DiscoverX)) EUB0000178b STK6; conditions: at 1 µM
[2] = target: RAC-alpha serine/threonine-protein kinase (Homo sapiens, UniProt P31749); assay: Selectivity interaction (Kinase panel (University of Dundee)) EUB0000169b AKT1; conditions: at 10 µM
RAC-alpha serine/threonine-protein kinase, sequence (P31749 whole entry): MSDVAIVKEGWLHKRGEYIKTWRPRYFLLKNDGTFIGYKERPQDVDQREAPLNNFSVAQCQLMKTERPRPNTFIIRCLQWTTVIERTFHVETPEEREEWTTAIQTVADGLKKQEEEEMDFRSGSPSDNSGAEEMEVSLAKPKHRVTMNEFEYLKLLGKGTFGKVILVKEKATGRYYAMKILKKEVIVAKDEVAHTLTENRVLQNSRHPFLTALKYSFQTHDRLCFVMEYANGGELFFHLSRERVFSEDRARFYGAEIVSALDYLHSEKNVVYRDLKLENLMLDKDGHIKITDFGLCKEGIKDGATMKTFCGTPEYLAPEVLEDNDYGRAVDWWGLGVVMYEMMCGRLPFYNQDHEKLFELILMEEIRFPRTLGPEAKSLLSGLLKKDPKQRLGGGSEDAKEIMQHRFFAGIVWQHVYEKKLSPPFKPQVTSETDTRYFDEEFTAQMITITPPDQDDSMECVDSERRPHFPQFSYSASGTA

[3] = target: Calcium/calmodulin-dependent protein kinase kinase 1 (Homo sapiens) (UniProt Q8N5S9); assay: Selectivity interaction (KinomeScan (DiscoverX)) EUB0000169b CAMKK1; conditions: at 1 µM
[4] = target: Serine/threonine-protein phosphatase 2A activator (Homo sapiens) (UniProt Q15257); assay: Selectivity interaction (Kinase panel (University of Dundee)) EUB0000169b PTPA; conditions: at 10 µM
[5] = target: Dual specificity tyrosine-phosphorylation-regulated kinase 1A (Homo sapiens, UniProt Q13627); assay: Selectivity interaction (Kinase panel (University of Dundee)) EUB0000169b DYRK1A; conditions: at 10 µM
[6] = target: Protein kinase C alpha type (Homo sapiens) (UniProt P17252); assay: Selectivity interaction (Kinase panel (University of Dundee)) EUB0000169b PRKCA; conditions: at 10 µM
[7] = target: Serine/threonine-protein kinase PLK3 (Homo sapiens, UniProt Q9H4B4); assay: Selectivity interaction (KinomeScan (DiscoverX)) EUB0000169b PLK3; conditions: at 1 µM
Serine/threonine-protein kinase PLK3, sequence (Q9H4B4 whole entry, looked up): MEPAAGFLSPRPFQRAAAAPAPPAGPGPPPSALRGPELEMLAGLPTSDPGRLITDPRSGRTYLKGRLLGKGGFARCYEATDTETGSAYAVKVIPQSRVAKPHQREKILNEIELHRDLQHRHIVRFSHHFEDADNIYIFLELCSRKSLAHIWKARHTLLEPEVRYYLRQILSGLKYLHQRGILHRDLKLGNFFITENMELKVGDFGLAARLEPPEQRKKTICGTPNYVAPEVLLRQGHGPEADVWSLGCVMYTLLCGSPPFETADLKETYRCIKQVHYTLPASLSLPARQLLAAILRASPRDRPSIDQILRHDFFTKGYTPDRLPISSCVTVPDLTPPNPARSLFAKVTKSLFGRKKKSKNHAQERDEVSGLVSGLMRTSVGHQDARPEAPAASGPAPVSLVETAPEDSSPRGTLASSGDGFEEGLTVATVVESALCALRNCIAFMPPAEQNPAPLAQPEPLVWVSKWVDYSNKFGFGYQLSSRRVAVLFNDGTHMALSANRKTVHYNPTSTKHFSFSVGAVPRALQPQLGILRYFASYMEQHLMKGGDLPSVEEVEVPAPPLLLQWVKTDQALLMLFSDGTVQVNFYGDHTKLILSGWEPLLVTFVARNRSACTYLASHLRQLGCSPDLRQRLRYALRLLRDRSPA

[8] = target: T1, Mitogen-activated protein kinase 12 (Homo sapiens) (UniProt P53778); conditions: at 10 µM
T1 sequence (whole entry): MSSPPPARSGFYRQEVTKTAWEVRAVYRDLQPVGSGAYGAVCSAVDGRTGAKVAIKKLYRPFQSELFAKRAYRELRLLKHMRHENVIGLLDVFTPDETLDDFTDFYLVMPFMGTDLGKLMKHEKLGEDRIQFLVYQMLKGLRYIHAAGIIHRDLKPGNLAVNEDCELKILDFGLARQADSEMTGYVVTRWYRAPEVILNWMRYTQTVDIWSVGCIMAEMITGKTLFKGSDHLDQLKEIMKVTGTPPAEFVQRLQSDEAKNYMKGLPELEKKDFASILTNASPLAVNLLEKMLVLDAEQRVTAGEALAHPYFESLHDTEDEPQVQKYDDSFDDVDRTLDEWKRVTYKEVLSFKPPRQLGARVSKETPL

[9] = target: Mitogen-activated protein kinase 1 (Homo sapiens, UniProt P28482); assay: Selectivity interaction (Kinase panel (University of Dundee)) EUB0000169b MAPK1; conditions: at 10 µM
Mitogen-activated protein kinase 1, sequence (P28482 whole entry): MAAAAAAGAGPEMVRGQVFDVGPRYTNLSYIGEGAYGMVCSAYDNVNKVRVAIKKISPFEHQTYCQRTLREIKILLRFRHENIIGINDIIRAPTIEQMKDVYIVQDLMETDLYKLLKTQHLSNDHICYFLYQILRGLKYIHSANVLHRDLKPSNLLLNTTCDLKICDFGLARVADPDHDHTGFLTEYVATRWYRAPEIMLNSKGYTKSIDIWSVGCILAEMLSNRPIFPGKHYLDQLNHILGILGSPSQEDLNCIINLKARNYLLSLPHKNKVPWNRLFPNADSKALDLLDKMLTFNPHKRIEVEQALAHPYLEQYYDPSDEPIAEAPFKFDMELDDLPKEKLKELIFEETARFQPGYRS

[10] = target: Rho-associated protein kinase 1 (Homo sapiens) (UniProt Q13464); assay: Selectivity interaction (KinomeScan (DiscoverX)) EUB0000698a ROCK1; conditions: at 10 µM
Rho-associated protein kinase 1 (Homo sapiens), sequence (Q13464 2-1354 limits assumed): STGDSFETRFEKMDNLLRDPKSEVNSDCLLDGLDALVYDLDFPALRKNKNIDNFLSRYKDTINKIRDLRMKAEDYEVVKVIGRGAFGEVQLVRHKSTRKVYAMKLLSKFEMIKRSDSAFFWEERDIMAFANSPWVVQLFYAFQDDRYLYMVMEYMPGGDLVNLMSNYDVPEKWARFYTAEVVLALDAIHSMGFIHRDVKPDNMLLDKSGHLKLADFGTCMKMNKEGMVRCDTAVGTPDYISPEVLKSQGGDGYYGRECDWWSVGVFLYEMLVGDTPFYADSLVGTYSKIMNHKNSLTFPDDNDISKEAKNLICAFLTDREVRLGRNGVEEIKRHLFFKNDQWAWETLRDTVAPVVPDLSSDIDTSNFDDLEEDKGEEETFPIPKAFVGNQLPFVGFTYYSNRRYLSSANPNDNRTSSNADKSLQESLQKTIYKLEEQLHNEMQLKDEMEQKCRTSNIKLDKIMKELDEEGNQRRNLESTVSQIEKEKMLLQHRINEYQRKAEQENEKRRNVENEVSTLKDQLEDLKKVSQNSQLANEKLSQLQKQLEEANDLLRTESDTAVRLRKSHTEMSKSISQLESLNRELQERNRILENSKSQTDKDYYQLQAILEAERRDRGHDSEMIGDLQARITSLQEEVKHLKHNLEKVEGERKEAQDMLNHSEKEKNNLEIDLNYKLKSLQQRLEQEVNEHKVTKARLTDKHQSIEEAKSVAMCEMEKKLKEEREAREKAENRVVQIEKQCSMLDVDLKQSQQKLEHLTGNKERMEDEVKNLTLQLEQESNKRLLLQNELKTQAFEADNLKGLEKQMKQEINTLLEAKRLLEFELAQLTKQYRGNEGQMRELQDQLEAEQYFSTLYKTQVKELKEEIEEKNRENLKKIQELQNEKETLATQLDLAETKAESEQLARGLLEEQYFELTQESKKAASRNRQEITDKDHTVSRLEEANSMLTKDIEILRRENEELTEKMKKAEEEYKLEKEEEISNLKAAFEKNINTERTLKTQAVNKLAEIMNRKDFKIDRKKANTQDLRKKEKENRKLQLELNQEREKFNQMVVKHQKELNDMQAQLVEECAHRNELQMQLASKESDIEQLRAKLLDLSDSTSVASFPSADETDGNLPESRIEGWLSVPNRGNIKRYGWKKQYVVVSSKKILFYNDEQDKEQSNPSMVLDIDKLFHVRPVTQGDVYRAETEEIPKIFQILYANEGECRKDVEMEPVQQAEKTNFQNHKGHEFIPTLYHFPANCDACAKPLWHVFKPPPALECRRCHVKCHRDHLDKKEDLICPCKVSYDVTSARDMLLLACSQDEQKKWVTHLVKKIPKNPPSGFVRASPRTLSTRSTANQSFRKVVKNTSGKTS

[11] = target: Phosphatidylinositol 4-phosphate 5-kinase type-1 gamma (Homo sapiens) (UniProt O60331); assay: Selectivity interaction (KinomeScan (DiscoverX)) EUB0000698a PIP5K1C; conditions: at 10 µM
Phosphatidylinositol 4-phosphate 5-kinase type-1 gamma (Homo sapiens), sequence (O60331 whole entry): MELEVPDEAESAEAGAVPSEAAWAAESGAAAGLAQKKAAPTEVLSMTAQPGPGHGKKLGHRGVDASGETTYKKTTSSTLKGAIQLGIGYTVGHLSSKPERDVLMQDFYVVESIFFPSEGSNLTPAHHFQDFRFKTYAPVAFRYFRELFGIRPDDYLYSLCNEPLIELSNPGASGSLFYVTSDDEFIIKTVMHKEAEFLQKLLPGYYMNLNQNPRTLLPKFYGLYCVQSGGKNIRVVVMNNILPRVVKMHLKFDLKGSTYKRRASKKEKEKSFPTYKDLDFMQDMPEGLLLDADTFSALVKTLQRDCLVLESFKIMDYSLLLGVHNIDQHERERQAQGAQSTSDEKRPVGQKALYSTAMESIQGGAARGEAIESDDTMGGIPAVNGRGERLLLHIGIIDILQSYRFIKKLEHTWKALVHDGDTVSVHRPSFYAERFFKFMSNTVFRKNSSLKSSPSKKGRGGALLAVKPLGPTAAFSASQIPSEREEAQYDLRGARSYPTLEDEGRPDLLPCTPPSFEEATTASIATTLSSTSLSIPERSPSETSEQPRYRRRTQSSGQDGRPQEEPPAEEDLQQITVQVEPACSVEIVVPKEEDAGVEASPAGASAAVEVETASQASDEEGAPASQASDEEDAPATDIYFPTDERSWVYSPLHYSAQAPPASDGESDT

[12] = target: Platelet-derived growth factor receptor beta (Homo sapiens, UniProt P09619); assay: Selectivity interaction (KinomeScan (DiscoverX)) EUB0000698a PDGFRB; conditions: at 10 µM
Platelet-derived growth factor receptor beta, sequence (P09619 whole entry): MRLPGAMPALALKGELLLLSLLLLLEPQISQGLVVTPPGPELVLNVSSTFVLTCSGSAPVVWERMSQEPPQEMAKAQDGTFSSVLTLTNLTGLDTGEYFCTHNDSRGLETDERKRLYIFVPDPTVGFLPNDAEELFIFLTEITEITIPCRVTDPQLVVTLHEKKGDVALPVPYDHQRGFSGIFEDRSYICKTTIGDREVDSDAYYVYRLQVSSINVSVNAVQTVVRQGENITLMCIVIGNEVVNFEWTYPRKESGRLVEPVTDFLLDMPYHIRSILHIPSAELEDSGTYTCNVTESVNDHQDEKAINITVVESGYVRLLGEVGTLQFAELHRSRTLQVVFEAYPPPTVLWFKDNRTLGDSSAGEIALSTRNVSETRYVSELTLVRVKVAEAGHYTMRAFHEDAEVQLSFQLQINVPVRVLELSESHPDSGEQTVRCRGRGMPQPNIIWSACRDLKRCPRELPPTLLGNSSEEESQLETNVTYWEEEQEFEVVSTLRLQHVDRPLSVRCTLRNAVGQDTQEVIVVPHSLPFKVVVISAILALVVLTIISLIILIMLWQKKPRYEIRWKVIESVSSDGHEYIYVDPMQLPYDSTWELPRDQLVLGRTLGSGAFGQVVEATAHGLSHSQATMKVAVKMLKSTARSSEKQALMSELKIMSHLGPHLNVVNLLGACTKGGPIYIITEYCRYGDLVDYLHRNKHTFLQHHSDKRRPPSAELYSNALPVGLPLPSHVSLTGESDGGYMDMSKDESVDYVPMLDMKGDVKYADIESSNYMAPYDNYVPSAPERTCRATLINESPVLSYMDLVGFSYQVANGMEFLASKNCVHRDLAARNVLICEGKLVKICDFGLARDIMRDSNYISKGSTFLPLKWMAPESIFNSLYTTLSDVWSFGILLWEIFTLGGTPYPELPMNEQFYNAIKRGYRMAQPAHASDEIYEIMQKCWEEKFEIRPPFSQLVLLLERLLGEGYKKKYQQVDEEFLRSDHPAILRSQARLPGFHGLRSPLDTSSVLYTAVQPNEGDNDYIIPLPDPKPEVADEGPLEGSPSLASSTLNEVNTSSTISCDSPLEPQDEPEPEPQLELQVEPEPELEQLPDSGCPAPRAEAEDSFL

[13] = target: T2, Tyrosine-protein kinase JAK3 (Homo sapiens) (UniProt P52333); assay: Selectivity interaction (KinomeScan (DiscoverX)) EUB0000702a JAK3; conditions: at 1 µM
T2 sequence (whole entry): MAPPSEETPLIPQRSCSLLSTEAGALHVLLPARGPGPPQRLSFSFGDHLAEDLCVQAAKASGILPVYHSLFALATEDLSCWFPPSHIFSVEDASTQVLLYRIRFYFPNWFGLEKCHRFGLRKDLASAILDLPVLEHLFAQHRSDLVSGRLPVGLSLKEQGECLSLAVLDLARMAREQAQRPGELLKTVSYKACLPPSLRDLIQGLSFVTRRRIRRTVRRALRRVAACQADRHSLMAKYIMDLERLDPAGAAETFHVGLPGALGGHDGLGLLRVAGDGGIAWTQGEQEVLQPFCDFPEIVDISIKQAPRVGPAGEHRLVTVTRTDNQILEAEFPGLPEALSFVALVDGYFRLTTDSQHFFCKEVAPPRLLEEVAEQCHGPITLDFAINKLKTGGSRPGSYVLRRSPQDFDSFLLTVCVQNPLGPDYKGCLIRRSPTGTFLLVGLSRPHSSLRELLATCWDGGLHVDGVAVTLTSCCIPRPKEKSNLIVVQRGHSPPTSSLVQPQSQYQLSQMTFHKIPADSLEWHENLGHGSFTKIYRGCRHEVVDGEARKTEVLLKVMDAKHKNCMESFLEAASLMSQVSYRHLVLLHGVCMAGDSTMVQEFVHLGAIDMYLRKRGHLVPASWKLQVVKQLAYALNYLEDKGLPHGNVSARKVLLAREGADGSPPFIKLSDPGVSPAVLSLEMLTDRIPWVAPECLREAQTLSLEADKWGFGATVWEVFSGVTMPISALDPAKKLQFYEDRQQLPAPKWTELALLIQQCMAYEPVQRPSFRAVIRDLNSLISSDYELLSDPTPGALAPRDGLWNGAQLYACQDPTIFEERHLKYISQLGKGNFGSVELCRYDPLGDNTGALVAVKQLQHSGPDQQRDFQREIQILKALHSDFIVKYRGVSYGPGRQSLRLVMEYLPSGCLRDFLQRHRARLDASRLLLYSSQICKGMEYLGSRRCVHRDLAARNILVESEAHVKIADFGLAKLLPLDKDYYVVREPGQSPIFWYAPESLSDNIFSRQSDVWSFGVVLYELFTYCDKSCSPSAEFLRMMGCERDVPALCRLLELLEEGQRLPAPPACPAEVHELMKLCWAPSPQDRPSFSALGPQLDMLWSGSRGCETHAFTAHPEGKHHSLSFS

[14] = target: NUAK family SNF1-like kinase 2 (Homo sapiens) (UniProt Q9H093); assay: Selectivity interaction (KinomeScan (DiscoverX)) EUB0000702a NUAK2; conditions: at 1 µM
[15] = target: T2, Tyrosine-protein kinase JAK3 (Homo sapiens); assay: Selectivity interaction (KinomeScan (DiscoverX)) EUB0000138c JAK3; conditions: at 100 nM
[16] = target: T3, Aurora kinase C (Homo sapiens) (UniProt Q9UQB9); conditions: at 1 µM
T3 sequence (whole entry): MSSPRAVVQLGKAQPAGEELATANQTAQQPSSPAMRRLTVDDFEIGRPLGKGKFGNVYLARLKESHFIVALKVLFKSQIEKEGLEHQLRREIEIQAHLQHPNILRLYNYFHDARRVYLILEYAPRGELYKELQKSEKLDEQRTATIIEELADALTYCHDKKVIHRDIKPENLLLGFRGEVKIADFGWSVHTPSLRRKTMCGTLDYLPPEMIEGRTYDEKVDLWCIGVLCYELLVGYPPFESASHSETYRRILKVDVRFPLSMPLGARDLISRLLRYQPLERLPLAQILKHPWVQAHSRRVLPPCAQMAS

[17] = target: Serine/threonine-protein kinase 17A (Homo sapiens) (UniProt Q9UEE5); assay: Selectivity interaction (KinomeScan (DiscoverX)) EUB0000305b STK17A; conditions: at 100 nM
Serine/threonine-protein kinase 17A (Homo sapiens), sequence (Q9UEE5 whole entry): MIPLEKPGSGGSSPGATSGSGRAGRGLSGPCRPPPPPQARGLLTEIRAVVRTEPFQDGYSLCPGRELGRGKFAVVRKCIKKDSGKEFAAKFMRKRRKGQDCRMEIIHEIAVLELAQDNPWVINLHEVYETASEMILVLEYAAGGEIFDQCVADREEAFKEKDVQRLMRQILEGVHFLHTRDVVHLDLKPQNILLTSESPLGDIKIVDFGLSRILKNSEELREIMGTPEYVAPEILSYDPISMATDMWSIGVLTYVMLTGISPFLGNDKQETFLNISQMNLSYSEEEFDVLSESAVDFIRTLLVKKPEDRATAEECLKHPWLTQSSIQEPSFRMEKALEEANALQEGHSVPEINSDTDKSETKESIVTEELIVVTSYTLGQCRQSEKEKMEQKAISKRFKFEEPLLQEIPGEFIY

[18] = target: Serine/threonine-protein kinase 17A (Homo sapiens, UniProt Q9UEE5); assay: Selectivity interaction (NanoBRET assay (HEK293T cells)) EUB0000305b STK17A
Serine/threonine-protein kinase 17A, sequence (Q9UEE5 whole entry): as above

% of control [1]: 0.05%
Structure (SMILES): CN1C(=O)c2sccc2N(C)c2nc(Nc3ccc(S(N)(=O)=O)cc3)ncc21

% of control [2]: 90%
% of control [3]: 3.7%
% of control [4]: 56%
% of control [5]: 72%
% of control [6]: 103%
% of control [7]: 0.5%
% of control [8]: 112%
% of control [9]: 93%
Structure (SMILES): CC[C@@H]1C(=O)N(C)c2cnc(Nc3ccc(C(=O)NC4CCN(C)CC4)cc3OC)nc2N1C1CCCC1

% of control [10]: 4.7%
% of control [11]: 10%
% of control [12]: 5.3%
Structure (SMILES): COc1cc2ncn(-c3cc(OCc4ccccc4C(F)(F)F)c(C(N)=O)s3)c2cc1OC [GW843682X]

% of control [13]: 1.9%
% of control [14]: 7.6%
Structure (SMILES): CN(c1ccnc(CNc2nc(Nc3ccc4c(c3)CC(=O)N4)ncc2C(F)(F)F)n1)S(C)(=O)=O [PF-00911705]

% of control [15]: 8.2%
Structure (SMILES): CNC(=O)c1ccc(Nc2ncc(C(F)(F)F)c(NCc3nccnc3N(C)S(C)(=O)=O)n2)cc1 [DEFACTINIB]

Structure (SMILES): CCOc1cn(-c2ccc(F)cc2C)nc1C(=O)Nc1ccc(Oc2ccnc3cc(OC)c(OC)cc23)c(F)c1
% of control [16]: < 10%

% of control [17]: 40%
IC50 [18]: > 20 µM
Structure (SMILES): C[C@H](c1ccnc(Nc2nc3ccc(-c4cc(N(C)C)ncn4)cc3[nH]2)c1)N1CCN(C(=O)CC(F)(F)F)CC1 [BAY-985]
